# Assay results as given in patent US11311522B1 (Cavion, Inc., priority 2018, dated 2022).
# Where two headings read alike, the source gives them in different places.
# Columns and labels:
# [1] = Simulated Css and total active moiety, 10 mg BID; parameters: species or system human; conditions: for Css, estimated mean / Steady-state AUC24, estimated mean: CX-8998 10 mg twice daily fasted; for Cu, ss_adj: adjusted for fu and potency, 10 mg BID; for Cp, ss / Cu, ss: simulated from CX-8998 10 mg BID
# [2] = 4-week oral toxicology in Beagle dogs; conditions: dog, in vivo
# [3] = In vitro plasma protein binding, monkey; format: in vitro ADME
# Description: (§1) CX-8998 distributes readily to the brain in rats and to brain and cerebral spinal fluid (CSF) in dogs.
# [4] = biological target: T1, breast cancer resistance protein (BCRP) (Homo sapiens, UniProt Q9UNQ0); test: BCRP transport; format: in vitro ADME
# T1 sequence (Q9UNQ0 1-655): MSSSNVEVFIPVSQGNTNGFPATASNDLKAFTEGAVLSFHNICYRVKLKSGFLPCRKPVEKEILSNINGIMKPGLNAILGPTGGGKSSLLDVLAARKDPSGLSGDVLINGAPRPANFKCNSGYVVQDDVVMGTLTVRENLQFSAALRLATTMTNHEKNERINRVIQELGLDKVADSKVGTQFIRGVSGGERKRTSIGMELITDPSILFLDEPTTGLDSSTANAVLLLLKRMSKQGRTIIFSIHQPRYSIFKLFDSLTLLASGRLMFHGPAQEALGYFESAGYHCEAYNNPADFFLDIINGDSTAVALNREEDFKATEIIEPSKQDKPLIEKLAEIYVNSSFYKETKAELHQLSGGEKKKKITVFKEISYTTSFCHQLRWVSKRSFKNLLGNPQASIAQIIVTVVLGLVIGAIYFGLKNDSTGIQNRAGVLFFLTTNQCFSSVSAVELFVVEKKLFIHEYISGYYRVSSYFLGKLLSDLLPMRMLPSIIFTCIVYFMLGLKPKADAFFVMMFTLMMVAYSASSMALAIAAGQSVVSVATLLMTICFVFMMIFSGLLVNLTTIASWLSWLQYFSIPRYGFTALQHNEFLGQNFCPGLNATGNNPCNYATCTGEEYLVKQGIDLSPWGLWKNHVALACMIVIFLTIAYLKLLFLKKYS
# Description: (§2) Glucuronide conjugates of the oxygenated metabolites are detected in human, monkey, and dog hepatocyte preparations. […] However, the abundance of CYP3A5, CYP2C19, and CYP2D6 in human liver microsomes is low (2%-5%) relative to the primary contributors, CYP3A4 (˜30%) and CYP2C9 (˜20%). […] Information on reproductive and developmental toxicology was obtained in a 28-day pivotal female fertility study in rats and in preliminary embryo-fetal development studies in rats and rabbits.
# [5] = 90-day oral toxicology in Beagle dogs; conditions: Beagle, dog, in vivo, po
# [6] = test system: CYP1A2, CYP3A4, CYP2C8, CYP2C9, CYP2C19, CYP2D6, CYP2B6; test: CYP inhibition in human liver microsomes; format: in vitro ADME
# [7] = test system: T2, CYP1A2, CYP3A4, CYP2C8, CYP2C9, CYP2C19, CYP2D6; test: CYP inhibition in human liver microsomes; format: in vitro ADME; conditions: human liver microsomes
# T2 construct: IC50, CYP1A2, CYP3A4, CYP2C8, CYP2C9, CYP2C19, CYP2D6; other: human liver microsomes
# [8] = test system: WAG/Rij rats; test: WAG/Rij rat model of absence epilepsy; format: in vivo; conditions: 10 mg/kg oral
# Description: Other T-type antagonists from structurally diverse series have shown similar efficacy in this model (Broicher, 2007; Blumenfeld, 2008; Broicher, 2008; Shipe, 2008; Yang, 2008; Uebele, 2009; Russo, 2010; Russo, 2011).
# Data were scored with automated seizure analysis software, averaged, and normalized to enable treatment comparisons (FIG. 76)
# Control animals received vehicle administrations. […] Source: Merck TTA Package Description (FIG. 79).
# [9] = biological target: T3, Cav3.3 (Homo sapiens, UniProt Q9P0X4); test: Cav3.3 FLIPR calcium influx assay (HEK 293 cells); format: cell-based; conditions: for IC50: Cav3.3 FLIPR assay; for State dependence: hyperpolarized versus depolarized FLIPR potency
# T3 construct: expressed in transfected cells; host or cells: HEK 293
# T3 sequence (Q9P0X4 whole entry, species assumed): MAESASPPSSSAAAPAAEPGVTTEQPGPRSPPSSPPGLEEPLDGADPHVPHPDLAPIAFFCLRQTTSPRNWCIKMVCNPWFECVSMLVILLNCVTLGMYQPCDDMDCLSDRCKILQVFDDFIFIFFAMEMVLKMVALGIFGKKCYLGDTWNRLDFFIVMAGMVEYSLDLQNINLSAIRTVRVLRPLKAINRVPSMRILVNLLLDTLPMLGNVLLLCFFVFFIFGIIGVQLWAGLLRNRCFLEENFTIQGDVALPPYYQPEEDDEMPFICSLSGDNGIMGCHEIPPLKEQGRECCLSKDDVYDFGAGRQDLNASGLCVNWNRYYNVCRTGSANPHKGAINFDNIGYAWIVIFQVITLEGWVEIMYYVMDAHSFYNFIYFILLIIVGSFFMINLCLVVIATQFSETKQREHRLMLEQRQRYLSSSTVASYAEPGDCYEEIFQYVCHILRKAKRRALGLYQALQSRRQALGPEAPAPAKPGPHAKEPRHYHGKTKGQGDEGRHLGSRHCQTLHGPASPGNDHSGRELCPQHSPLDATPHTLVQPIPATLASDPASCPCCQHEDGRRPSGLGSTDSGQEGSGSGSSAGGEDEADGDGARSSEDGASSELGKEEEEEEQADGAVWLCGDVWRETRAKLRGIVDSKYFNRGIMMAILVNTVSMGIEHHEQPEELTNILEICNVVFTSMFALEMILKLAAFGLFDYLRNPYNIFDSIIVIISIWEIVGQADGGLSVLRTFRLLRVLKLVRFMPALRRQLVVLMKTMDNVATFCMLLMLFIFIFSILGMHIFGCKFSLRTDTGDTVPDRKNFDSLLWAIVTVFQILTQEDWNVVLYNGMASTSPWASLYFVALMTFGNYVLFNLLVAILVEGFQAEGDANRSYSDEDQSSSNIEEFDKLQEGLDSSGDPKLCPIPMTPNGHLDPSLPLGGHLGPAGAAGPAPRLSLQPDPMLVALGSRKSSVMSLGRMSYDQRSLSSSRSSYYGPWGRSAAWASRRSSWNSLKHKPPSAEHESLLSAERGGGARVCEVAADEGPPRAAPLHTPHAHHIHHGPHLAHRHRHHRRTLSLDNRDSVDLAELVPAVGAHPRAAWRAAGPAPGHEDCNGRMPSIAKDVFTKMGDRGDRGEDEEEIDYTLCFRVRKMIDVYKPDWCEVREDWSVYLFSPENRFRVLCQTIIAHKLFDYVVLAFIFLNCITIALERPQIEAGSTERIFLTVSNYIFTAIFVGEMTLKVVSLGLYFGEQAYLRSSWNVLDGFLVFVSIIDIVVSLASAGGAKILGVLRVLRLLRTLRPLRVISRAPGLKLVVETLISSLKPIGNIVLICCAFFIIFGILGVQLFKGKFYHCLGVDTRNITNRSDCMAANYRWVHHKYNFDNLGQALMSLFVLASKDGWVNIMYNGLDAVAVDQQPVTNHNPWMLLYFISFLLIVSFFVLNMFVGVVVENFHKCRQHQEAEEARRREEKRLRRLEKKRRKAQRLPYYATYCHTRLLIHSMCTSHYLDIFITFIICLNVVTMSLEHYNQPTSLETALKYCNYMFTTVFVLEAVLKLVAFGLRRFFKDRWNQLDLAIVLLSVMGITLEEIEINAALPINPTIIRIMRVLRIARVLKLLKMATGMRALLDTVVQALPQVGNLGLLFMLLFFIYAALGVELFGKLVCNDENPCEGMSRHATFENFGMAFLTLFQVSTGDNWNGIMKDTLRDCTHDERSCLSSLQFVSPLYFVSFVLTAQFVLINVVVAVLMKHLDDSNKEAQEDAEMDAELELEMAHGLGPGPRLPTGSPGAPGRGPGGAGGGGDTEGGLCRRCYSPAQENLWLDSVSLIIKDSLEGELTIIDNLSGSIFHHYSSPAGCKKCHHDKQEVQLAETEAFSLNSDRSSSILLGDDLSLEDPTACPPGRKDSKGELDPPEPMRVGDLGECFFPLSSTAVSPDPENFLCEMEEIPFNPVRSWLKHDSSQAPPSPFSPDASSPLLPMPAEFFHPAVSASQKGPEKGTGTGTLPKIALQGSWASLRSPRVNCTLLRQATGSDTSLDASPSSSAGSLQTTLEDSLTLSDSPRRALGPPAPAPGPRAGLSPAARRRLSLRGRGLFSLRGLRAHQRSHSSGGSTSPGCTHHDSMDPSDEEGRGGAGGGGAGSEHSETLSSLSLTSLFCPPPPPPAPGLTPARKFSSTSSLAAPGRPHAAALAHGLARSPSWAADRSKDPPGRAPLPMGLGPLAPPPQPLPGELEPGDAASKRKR
# [10] = In vitro plasma protein binding, dog; format: in vitro ADME
# Description: as §1
# [11] = Pharmacokinetics in dogs; format: in vivo, dog; conditions: for AUC: male, dog, plasma, po, 0.5 mg/kg, read-out: AUC24
# Description: (§3) The validity and reproducibility of the assays were determined, and the precision and accuracy for calibration standards and quality control samples were examined. […] The analytes were stable in plasma under the storage and assay conditions. […] Assay performances were satisfactory and met acceptance criteria for system performance suitability, quantitation range, calibration linearity, assay accuracy and precision, and assay recovery.
# [12] = In vitro plasma protein binding, human; format: in vitro ADME
# [13] = test system: P-glycoprotein; test: P-glycoprotein bidirectional transport; format: in vitro ADME, human, monkey, and rat
# Description: as §2
# [14] = Pharmacokinetics in rats; format: in vivo, rat; conditions: for Ratio of AUC24 (metabolite/CX-8998): Rat, single oral dose 10 mg/kg of CX-8998; for AUC: rat, plasma, po, 10 mg/kg, read-out: AUC24
# Description: as §3
# [15] = Pharmacokinetics in rhesus monkeys; format: in vivo, rhesus monkey; conditions: for AUC: male, rhesus monkey, plasma, po, 2 mg/kg, read-out: AUC24
# Description: as §3
# [16] = in vivo; conditions: rat, po
# [17] = M01, middle-aged and elderly men
# [18] = M01, middle-aged and elderly women
# [19] = depolarized, read-out: Depolarized FLIPR potency
# [20] = hyperpolarized, read-out: Hyperpolarized FLIPR potency
# [21] = dog plasma, read-out: In vitro plasma protein binding (converted)
# [22] = read-out: Free fraction in dog plasma
# [23] = human plasma, read-out: In vitro plasma protein binding (converted)
# [24] = humans, read-out: free fraction
# [25] = M02, middle-aged and elderly men
# [26] = M02, middle-aged and elderly women
smiles,measurement,setting,value
C=C(C)c1ccc(CC(=O)N[C@H](C)c2ccc(OCC(F)(F)F)cn2)cc1 [M01],Potency relative to CX-8998,[1],1.57
same,"Css, estimated mean",[1]; [17],1167 nM
same,"Steady-state AUC24, estimated mean",[1]; [17],28.008 µM·h
same,"Css, estimated mean",[1]; [18],1146 nM
same,"Steady-state AUC24, estimated mean",[1]; [18],27.504 µM·h
same,"Css, estimated mean","[1]; M01, young men",771 nM
same,"Steady-state AUC24, estimated mean","[1]; M01, young men",18.504 µM·h
same,"Cu, ss_adj",[1],<1.2 nM
same,"Cp, ss",[1],771 nM
same,"Cu, ss",[1],<0.8 nM
same,Safety margin (AUC24) at the NOEL over expected clinical exposure,[2],~6 fold
same,fraction unbound,[3],0.004
same,Inhibition of BCRP transport,[4]; 30 μM,57%
same,AUC,"[5]; female, 10 mg/kg",38.6 µM·h
same,AUC,"[5]; female, 30 mg/kg",103 µM·h
same,AUC,"[5]; female, 100 mg/kg/day",431 µM·h
same,AUC,"[5]; male, 10 mg/kg",54.9 µM·h
same,AUC,"[5]; male, 30 mg/kg",121 µM·h
same,AUC,"[5]; male, 100 mg/kg/day",1770 µM·h
same,Time-dependent inhibition of CYP3A4 or CYP2B6,[6],insignificant
same,IC50,[7],> 20000 nM
same,Percent of inhibition,[8],71%
same,IC50,[9]; [19],2.3 nM
same,IC50,[9]; [20],86 nM
same,State dependence,[9],37 fold
same,fraction unbound,[10]; [21],0.003
same,fraction unbound,"[10]; dogs, read-out: free fraction",0.003
same,fraction unbound,[10]; [22],0.003
same,Ratio of AUC24 (metabolite/CX-8998),"[11]; Dog, Male, single oral dose 0.5 mg/kg of CX-8998",0.21
same,AUC,[11],1.4 µM·h
same,fraction unbound,"[12]; human plasma, read-out: Human-free fraction",< 0.001
same,fraction unbound,[12]; [23],< 0.001
same,fraction unbound,[12]; [24],< 0.001
same,P-glycoprotein substrate or inhibitor activity,[13],did not demonstrate any activity as a substrate or inhibitor
same,Ratio of AUC24 (metabolite/CX-8998),[14]; Female,0.52
same,Ratio of AUC24 (metabolite/CX-8998),[14]; Male,0.63
same,AUC,[14]; female,8.7 µM·h
same,AUC,[14]; male,3.7 µM·h
same,Ratio of AUC24 (metabolite/CX-8998),"[15]; Monkey, Male, single oral dose 2 mg/kg of CX-8998",0.24
same,AUC,[15],0.5 µM·h
same,AUC,"[16]; female, 5 mg/kg",5.02 µM·h
same,AUC,"[16]; female, 15 mg/kg",20.3 µM·h
same,AUC,"[16]; female, 100 mg/kg",231 µM·h
same,AUC,"[16]; female, 300 mg/kg",234 µM·h
same,AUC,"[16]; male, 5 mg/kg",4.33 µM·h
same,AUC,"[16]; male, 15 mg/kg",11.3 µM·h
same,AUC,"[16]; male, 100 mg/kg",85.9 µM·h
same,AUC,"[16]; male, 300 mg/kg",125 µM·h
C[C@@H](NC(=O)Cc1ccc(C(C)(C)O)cc1)c1ccc(OCC(F)(F)F)cn1 [M02],"Css, estimated mean",[1]; [25],683 nM
same,"Steady-state AUC24, estimated mean",[1]; [25],15.312 µM·h
same,"Css, estimated mean",[1]; [26],566 nM
same,"Steady-state AUC24, estimated mean",[1]; [26],13.584 µM·h
same,"Css, estimated mean","[1]; M02, young men",343 nM
same,"Steady-state AUC24, estimated mean","[1]; M02, young men",8.232 µM·h
same,"Cu, ss_adj",[1],10.1 nM
same,"Cp, ss",[1],343 nM
same,"Cu, ss",[1],48 nM
same,Safety margin (AUC24) at the NOEL over expected clinical exposure,[2],~23 fold
same,fraction unbound,[3],0.17
same,Inhibition of BCRP-mediated transport,[4]; up to 30 μM,did not inhibit
same,AUC,"[5]; female, 10 mg/kg",103 µM·h
same,AUC,"[5]; female, 30 mg/kg",209 µM·h
same,AUC,"[5]; female, 100 mg/kg/day",339 µM·h
same,AUC,"[5]; male, 10 mg/kg",149 µM·h
same,AUC,"[5]; male, 30 mg/kg",213 µM·h
same,AUC,"[5]; male, 100 mg/kg/day",1800 µM·h
same,Time-dependent inhibition of CYP3A4 or CYP2B6,[6],insignificant
same,IC50,[7],> 20000 nM
same,Percent of inhibition,[8],67%
same,IC50,[9]; [19],17 nM
same,IC50,[9]; [20],2840 nM
same,State dependence,[9],166 fold
same,fraction unbound,[10]; [21],0.18
same,fraction unbound,"[10]; dogs, read-out: free fraction",0.18
same,fraction unbound,[10]; [22],0.18
same,AUC,[11],7.8 µM·h
same,fraction unbound,[12]; [23],0.14
same,fraction unbound,[12]; [24],0.14
same,P-glycoprotein substrate or inhibitor activity,[13],showed increased efflux in the rat and monkey assays
same,AUC,[14]; female,31 µM·h
same,AUC,[14]; male,10 µM·h
same,AUC,[15],36.6 µM·h
same,AUC,"[16]; female, 5 mg/kg",16.7 µM·h
same,AUC,"[16]; female, 15 mg/kg",54.8 µM·h
same,AUC,"[16]; female, 100 mg/kg",567 µM·h
same,AUC,"[16]; female, 300 mg/kg",511 µM·h
same,AUC,"[16]; male, 5 mg/kg",12 µM·h
same,AUC,"[16]; male, 15 mg/kg",26.1 µM·h
same,AUC,"[16]; male, 100 mg/kg",186 µM·h
same,AUC,"[16]; male, 300 mg/kg",258 µM·h
